Experimental data from patent publication US11992473B2, “Compositions and methods for diagnosis and treatment of conditions related to the quality of aging and longevity” (Epitracker, Inc., priority 2018, dated 2024).

Key:
Format in all cases: cell-based, human
[1] = tested on: Peripheral blood mononuclear cells, B cells; experiment: BioMAP Diversity PLUS BT system (T cell dependent B cell activation); conditions: BT system
Experimental: (§1) This study examined activities of small molecules discovered in dolphin serum that had protective profiles against diseases of aging which can impact quality of life and longevity. These molecules were tested across 12 human primary cell-based systems as part of DiscoverX's BioMAP Diversity Plus program. These systems are designed to model complex human tissue and disease biology of the vasculature, skin, lung, and inflammatory tissues. Quantitative measurements of biomarker activities across this broad panel, along with comparative analysis of biological activities of known bioactive agents were used to predict and compare the efficacy and function of the four compounds. Compounds were tested at four concentrations (740 nm and 2.2, 6.7 and 20 μM).
(§2) BioMAP panels consist of human primary cell-based systems designed to model different aspects of the human body in an in vitro format. The 12 systems in the Diversity PLUS panel allow test agent characterization in an unbiased way across a broad set of systems modeling various human disease states. BioMAP systems are constructed with one or more primary cell types from healthy human donors, with stimuli (such as cytokines or growth factors) added to capture relevant signaling networks that naturally occur in human tissue or pathological conditions. Vascular biology is modeled in both a Th1 (3C system) and a Th2 (4H system) inflammatory environment, as well as in a Th1 inflammatory state specific to arterial smooth muscle cells (CASM3C system). Additional systems recapitulate aspects of the systemic immune response including monocyte-driven Th1 inflammation (LPS system) or T cell stimulation (SAg system), chronic Th1 inflammation driven by macrophage activation (lMphg system) and the T cell-dependent activation of B cells that occurs in germinal centers (BT system). The BE3C system (Th1) and the BF4T system (Th2) represent airway inflammation of the lung, while the MyoF system models myofibroblast-lung tissue remodeling. Lastly, skin biology is addressed in the KF3CT system modeling Th1 cutaneous inflammation and the HDF3CGF system modeling wound healing.
(§3) Each test agent generates a signature BioMAP profile that is created from the changes in protein biomarker readouts within individual system environments. Biomarker readouts (7-17 per system) are selected for therapeutic and biological relevance, are predictive for disease outcomes or specific drug effects and are validated using agents with known mechanism of action (MoA). Each readout is measured quantitatively by immune-based methods that detect protein (e.g., ELISA) or functional assays that measure proliferation and viability. BioMAP readouts are diverse and include cell surface receptors, cytokines, chemokines, matrix molecules and enzymes.
(§4) The Diversity PLUS panel allows test agent characterization in an unbiased way across a broad set of systems modeling various human disease states. These systems are designed to model complex human tissue and disease biology of the vasculature, skin, lung, and inflammatory tissues.
(§5) BioMAP systems are constructed with one or more primary cell types from healthy human donors, with stimuli (such as cytokines or growth factors) added to capture relevant signaling networks that naturally occur in human tissue or pathological conditions. Vascular biology is modeled in both a Th1 (3C system) and a Th2 (4H system) inflammatory environment, as well as in a Th1 inflammatory state specific to arterial smooth muscle cells (CASM3C system). Additional systems recapitulate aspects of the systemic immune response including monocyte-driven Th1 inflammation (LPS system) or T cell stimulation (SAg system), chronic Th1 inflammation driven by macrophage activation (lMphg system) and the T cell-dependent activation of B cells that occurs in germinal centers (BT system).

[2] = tested on: Bronchial epithelial cells, dermal fibroblasts; experiment: BioMAP Diversity PLUS BF4T system (Th2 type lung inflammation)
Experimental: as §1, §2
as §3, with “enzymes. In total, the Diversity PLUS panel contains 148 biomarker readouts that capture biological changes that occur within the physiological context of the particular BioMAP system. Specific BioMAP activities have been correlated to in vivo biology, and multiparameter BioMAP profiles have been used to distinguish compounds based on MoA and target selectivity across diverse physiological systems.” for “enzymes.”
(§6) The Diversity PLUS panel allows test agent characterization in an unbiased way across a broad set of systems modeling various human disease states. These systems are designed to model complex human tissue and disease biology of the vasculature, skin, lung, and inflammatory tissues. Quantitative measurements of 148 biomarker activities across this broad panel, along with comparative analysis of biological activities from known bioactive agents, were used to predict and compare the efficacy and function of each selected compound at four concentrations (740 nm and 2.2, 6.7 and 20 μM). […]

[3] = tested on: Bronchial epithelial cells; experiment: BioMAP Diversity PLUS BE3C system (Th1 type lung inflammation)
Experimental: as §1, §2
as §3, with “enzymes. In total, the Diversity PLUS panel contains 148 biomarker readouts that capture biological changes that occur within the physiological context of the particular BioMAP system. Specific BioMAP activities have been correlated to in vivo biology, and multiparameter BioMAP profiles have been used to distinguish compounds based on MoA and target selectivity across diverse physiological systems.” for “enzymes.”
as §6

[4] = tested on: Dermal fibroblasts; experiment: BioMAP Diversity PLUS HDF3CGF system (wound healing and matrix/tissue remodeling); conditions: HDF3CGF system
Experimental: as §1, §2, §3, §4, §5

[5] = tested on: Lung fibroblasts; experiment: BioMAP Diversity PLUS MyoF system (myofibroblast differentiation and tissue remodeling)
Experimental: as §1, §2
as §3, with “enzymes. In total, the Diversity PLUS panel contains 148 biomarker readouts that capture biological changes that occur within the physiological context of the particular BioMAP system. Specific BioMAP activities have been correlated to in vivo biology, and multiparameter BioMAP profiles have been used to distinguish compounds based on MoA and target selectivity across diverse physiological systems.” for “enzymes.”
as §6

[6] = tested on: Macrophages, venular endothelial cells; experiment: BioMAP Diversity PLUS lMphg system (Th1 type chronic inflammation, macrophage activation); conditions: /Mphg system
Experimental: as §1, §2
as §3, with “enzymes. In total, the Diversity PLUS panel contains 148 biomarker readouts that capture biological changes that occur within the physiological context of the particular BioMAP system. Specific BioMAP activities have been correlated to in vivo biology, and multiparameter BioMAP profiles have been used to distinguish compounds based on MoA and target selectivity across diverse physiological systems.” for “enzymes.”
as §6

[7] = tested on: Coronary artery smooth muscle cells; experiment: BioMAP Diversity PLUS CASM3C system (Th1 type vascular inflammation); conditions: for Significant log10 reduction compared to nontreated controls: Serum amyloid A: CASM3C system
Experimental: as §1, §2, §3, §4, §5

CCCCC/C=C\C/C=C\C/C=C\C/C=C\CCCC(=O)O[C@H](COC(=O)CCCCCCCCCCCCCCC)COP(=O)([O-])OCC[N+](C)(C)C [1-palmitoyl-2-arachidonoyl-GPC]
Significant log10 reduction compared to nontreated controls: Secreted interleukin 17F (IL-17F) ([1]; 2.2 μM): −0.12 log10
Significant log10 reduction compared to nontreated controls: Secreted interleukin 2 (IL-2) ([1]; 20.0 μM): −0.27 log10
Significant log10 reduction compared to nontreated controls: Secreted interleukin 17F (IL-17F) ([1]; 20.0 μM): −0.24 log10
Significant log10 reduction compared to nontreated controls: Secreted tumor necrosis factor alpha (TNFα) ([1]; 20.0 μM): −0.16 log10
Significant log10 reduction compared to nontreated controls: Eotaxin 3 (CCL26) ([2]; 2.2 μM): −0.11 log10
Significant log10 reduction compared to nontreated controls: Eotaxin 3 (CCL26) ([2]; 6.7 μM): −0.24 log10
Significant log10 reduction compared to nontreated controls: Plasminogen activation inhibitor 1 (PAI-1) ([2]; 6.7 μM): −0.07 log10
Significant log10 reduction compared to nontreated controls: Eotaxin 3 (CCL26) ([2]; 20.0 μM): −0.58 log10
Significant log10 reduction compared to nontreated controls: Plasminogen activation inhibitor 1 (PAI-1) ([2]; 20.0 μM): −0.19 log10
Significant log10 reduction compared to nontreated controls: Keratin 8/18 ([3]; 6.7 μM): −0.08 log10
Significant log10 reduction compared to nontreated controls: Interleukin 8 (IL-8)/CXCL8 ([3]; 20.0 μM): −0.12 log10
Significant log10 reduction compared to nontreated controls: Matrix metalloproteinase 9 (MMP-9) ([3]; 20.0 μM): −0.11 log10
Significant log10 reduction compared to nontreated controls: Plasminogen activation inhibitor 1 (PAI-1) ([3]; 20.0 μM): −0.12 log10
Significant log10 reduction compared to nontreated controls: Plasminogen activation inhibitor 1 (PAI-1) ([4]; 20.0 μM): −0.11 log10
Significant log10 reduction compared to nontreated controls: Alpha smooth muscle actin (αSMA) ([5]; 0.7 μM): −0.07 log10
Significant log10 reduction compared to nontreated controls: Alpha smooth muscle actin (αSMA) ([5]; 2.2 μM): −0.09 log10
Significant log10 reduction compared to nontreated controls: Alpha smooth muscle actin (αSMA) ([5]; 6.7 μM): −0.10 log10
Significant log10 reduction compared to nontreated controls: Alpha smooth muscle actin (αSMA) ([5]; 20.0 μM): −0.18 log10
Significant log10 reduction compared to nontreated controls: Monocyte chemoattractant protein 1 (MCP-1) ([6]; 2.2 μM): −0.12 log10
Significant log10 reduction compared to nontreated controls: Monocyte chemoattractant protein 1 (MCP-1) ([6]; 6.7 μM): −0.13 log10
Significant log10 reduction compared to nontreated controls: Secreted interleukin 10 (IL-10) ([6]; 6.7 μM): −0.18 log10
Significant log10 reduction compared to nontreated controls: CD69 ([6]; 20.0 μM): −0.11 log10
Significant log10 reduction compared to nontreated controls: Monocyte chemoattractant protein 1 (MCP-1) ([6]; 20.0 μM): −0.18 log10

CCCCCCC=CCCCCCCCCC(=O)O [10-heptadecanoate]
Significant log10 reduction compared to nontreated controls: Eotaxin 3 (CCL26) ([2]; 2.2 μM): −0.10 log10
Significant log10 reduction compared to nontreated controls: Eotaxin 3 (CCL26) ([2]; 6.7 μM): −0.13 log10
Significant log10 reduction compared to nontreated controls: Eotaxin 3 (CCL26) ([2]; 20.0 μM): −0.31 log10
Significant log10 reduction compared to nontreated controls: Serum amyloid A ([7]; 2.2 μM): −0.13 log10
Significant log10 reduction compared to nontreated controls: Macrophage colony-stimulating factor (M-CSF) ([4]; 6.7 μM): −0.1 log10
Significant log10 reduction compared to nontreated controls: Vascular cell adhesion molecule 1 (VCAM-1) ([4]; 6.7 μM): −0.17 log10

NC(=O)CC[C@H](NC(=O)CC[C@H](N)C(=O)O)C(=O)O [Gamma-glutamylglutamine]
Significant log10 reduction compared to nontreated controls: Secreted interleukin 6 (IL-6) ([1]; 20.0 μM): −0.13 log10
Significant log10 reduction compared to nontreated controls: Vascular cell adhesion molecule 1 (VCAM-1) ([7]; CASM3C system (as aligned in the table), 20.0 μM): −0.15 log10
Significant log10 reduction compared to nontreated controls: Serum amyloid A ([7]; 6.7 μM): −0.11 log10
Significant log10 reduction compared to nontreated controls: Collagen III ([4]; 20.0 μM): −0.10 log10
Significant log10 reduction compared to nontreated controls: Monocyte chemoattractant protein 1 (MCP-1) ([6]; 0.7 μM): −0.18 log10
Significant log10 reduction compared to nontreated controls: Monocyte chemoattractant protein 1 (MCP-1) ([6]; 2.2 μM): −0.10 log10
Significant log10 reduction compared to nontreated controls: Interleukin 1 alpha (IL-1α) ([6]; 20.0 μM): −0.16 log10
